Results taken from US9440957B2, “Compounds and compositions for modulating EGFR Activity” (Novartis AG, priority 2012, dated 2016).
Read-outs that look alike come from different tables or passages of the source.

Columns and labels:
HEKn (EGFR WT) = HEKn (EGFR WT) (Homo sapiens, UniProt P00533); assay: EGFR target modulation in HEKn (EGFR-WT) cell line (phospho-EGFR Y1173 ELISA); assay type: cell-based; conditions: value outside parentheses
Experimental: EGFR Target Modulation in HEKn (EGFR-WT) Cell Line Tissue Culture. Human neonatal epithelial keratinocytes (Invitrogen #C-001-5C) were maintained in EpiLife media (Invitrogen #[…]) supplemented with growth factors (Invitrogen #S-001-5). Cells were harvested with 0.05% Trypsin/EDTA (Hyclone #SH30236.01) and quenched with 5% FBS/EpiLife media. […] The serial diluted compounds were transferred to the plate containing cells by using a 50 nl Pin Head device (Perkin Elmer) and the cells were placed back in the incubator for 3 hours. […] Phospho-EGFR (Y1173) ELISA. Solid white high-binding ELISA plates (Greiner #781074) were coated with 5 ug/ml anti-EGFR capture antibody (R&D Systems #AF231) overnight in 50 mM carbonate/bicarbonate pH 9.5 buffer. […] Wash steps were carried out with a Bio-Tek ELx405 SelectTM using 4 cycles of 100 ul TBS-T (20 mM Tris, 137 mM NaCl, 0.05% Tween-20) per well. […] Lysis was allowed to occur for 20 minutes on ice. A 25 ul aliquot was added to each well of the blocked ELISA plate and incubated overnight at 4° C. with gentle shaking. […] After washing, 1:2,000 anti-rabbit-HRP (Cell Signaling #7074) in 0.2% BSA/TBS-T was added and incubated for 1 hour at room temperature. Chemiluminescent detection was carried out with SuperSignal ELISA Pico substrate (ThermoScientific #37069). Signal was read on EnVision plate reader using built-in UltraLUM setting. Data Analysis. Control cells treated with EGF were set to 100% maximum response. […] With these parameters, the IC50's for each compound in each cell line was calculated using non-linear curve fitting analysis.

[1] = target: human EGFR L858R (NIH/3T3 cells) (Homo sapiens, UniProt P00533, L858R); assay: EGFR target modulation in engineered NIH/3T3 cell lines (phospho-EGFR Y1068 AlphaLISA), EGFR L858R; assay type: cell-based; conditions: engineered NIH/3T3 cells, read-out: NIH3T3 IC50 (μM) EGFR (L858R)
Procedure, shortened: (§1)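 Read-out is phospho-Y1068 AlphaLISA on cell lysates, with anti-total EGFR at 1 nM final equilibrated 1 h at room temperature. Cells were dosed 3 h with a 12-point 1:3 series starting from a 10 μM stock. Only the WT line received 50 ng/ml EGF for 5 min.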

[2] = target: human EGFR WT (NIH/3T3 cells, EGF-induced) (Homo sapiens, UniProt P00533); assay: EGFR target modulation in engineered NIH/3T3 cell lines (phospho-EGFR Y1068 AlphaLISA), EGFR WT; assay type: cell-based; conditions: engineered NIH/3T3 cells, read-out: NIH3T3 IC50 (μM) EGFR (WT)
human EGFR WT (NIH/3T3 cells, EGF-induced), sequence (P00533 25-1210): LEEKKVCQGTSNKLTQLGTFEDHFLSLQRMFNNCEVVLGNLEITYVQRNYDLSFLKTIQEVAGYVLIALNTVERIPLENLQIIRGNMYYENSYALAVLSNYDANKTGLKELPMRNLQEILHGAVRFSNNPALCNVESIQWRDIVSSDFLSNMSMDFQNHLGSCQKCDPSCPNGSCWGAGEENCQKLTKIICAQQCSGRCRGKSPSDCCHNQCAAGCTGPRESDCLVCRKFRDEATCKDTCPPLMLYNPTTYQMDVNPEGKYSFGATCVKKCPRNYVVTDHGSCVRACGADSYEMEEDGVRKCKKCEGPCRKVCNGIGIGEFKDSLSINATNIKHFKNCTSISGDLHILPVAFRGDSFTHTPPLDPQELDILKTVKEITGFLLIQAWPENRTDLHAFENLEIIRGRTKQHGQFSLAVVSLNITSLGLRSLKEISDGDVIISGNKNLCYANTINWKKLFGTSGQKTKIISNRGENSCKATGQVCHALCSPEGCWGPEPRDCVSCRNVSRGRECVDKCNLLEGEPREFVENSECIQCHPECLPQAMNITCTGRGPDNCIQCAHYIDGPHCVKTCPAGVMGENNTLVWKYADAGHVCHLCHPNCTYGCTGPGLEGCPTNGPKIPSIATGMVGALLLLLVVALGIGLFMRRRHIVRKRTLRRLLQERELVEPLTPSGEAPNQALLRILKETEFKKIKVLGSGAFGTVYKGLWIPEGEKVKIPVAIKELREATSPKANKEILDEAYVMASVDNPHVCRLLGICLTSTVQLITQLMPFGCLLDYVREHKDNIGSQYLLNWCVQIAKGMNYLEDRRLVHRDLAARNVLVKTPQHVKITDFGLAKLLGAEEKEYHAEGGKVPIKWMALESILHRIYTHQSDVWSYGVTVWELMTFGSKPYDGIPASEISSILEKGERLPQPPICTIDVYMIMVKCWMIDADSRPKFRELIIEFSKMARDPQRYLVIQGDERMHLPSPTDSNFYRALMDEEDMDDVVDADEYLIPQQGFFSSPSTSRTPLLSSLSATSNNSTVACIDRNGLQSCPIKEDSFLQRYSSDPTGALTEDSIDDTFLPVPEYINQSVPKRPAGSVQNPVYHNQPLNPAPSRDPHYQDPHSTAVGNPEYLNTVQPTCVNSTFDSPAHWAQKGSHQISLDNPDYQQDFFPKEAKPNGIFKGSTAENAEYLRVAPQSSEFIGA
Procedure, shortened: as §1

H3255 (EGFR L858R) = H3255 (EGFR L858R) (Homo sapiens, UniProt P00533, L858R); assay: EGFR target modulation in H3255 cell line (phospho-EGFR Y1173 ELISA); assay type: cell-based
Experimental: (§2) EGFR Target Modulation in H1975, H3255 and HCC827 Cell Lines Tissue Culture. Cells were maintained in 10% FBS/RPMI supplemented with 100 μg/ml Penicillin/Streptomycin (Hyclone #SH30236.01). […] The cells were allowed to incubate overnight in a 37° C., 5% CO2 humidified tissue culture incubator. […] The serial diluted compounds were transferred to the plate containing cells by using a 50 nl Pin Head device (Perkin Elmer) and the cells were placed back in the incubator for 3 hours. Phospho-EGFR ([…]) Target Modulation Assay. The media was reduced to 20 ul using a Bio-Tek ELx 405 SelectTM plate washer. […] The plates were shaken at 4° C. for 20 minutes. An aliquot of 25 ul from each well was transferred to pEGFR(Y1173) ELISA plates for analysis. Phospho-EGFR ([…]) ELISA. Solid white high-binding ELISA plates (Greiner #781074) were coated with 5 ug/ml anti-EGFR capture antibody (R&D Systems #AF231) overnight in 50 mM carbonate/bicarbonate pH 9.5 buffer. Plates were blocked with 1% BSA (Sigma #A7030) in PBS for 1 hour at room temperature. Wash steps were carried out with a Bio-Tek ELx405 SelectTM using 4 cycles of 100 ul TBS-T (20 mM Tris, 137 mM NaCl, 0.05% Tween-20) per well. […] Lysis was allowed to occur for 20 minutes on ice. A 25 ul aliquot was added to each well of the blocked ELISA plate and incubated overnight at 4° C. with gentle shaking. […] After washing, 1:2,000 anti-rabbit-HRP (Cell Signaling #7074) in 0.2% BSA/TBS-T was added and incubated for 1 hour at room temperature. Chemiluminescent detection was carried out with SuperSignal ELISA Pico substrate (ThermoScientific #37069). Signal was read on EnVision plate reader using built-in UltraLUM setting. Data Analysis. Control cells treated with EGF were set to 100% maximum response. […] With these parameters, the IC50's for each compound in each cell line was calculated using non-linear curve fitting analysis.

H1975 (EGFR L858/T790M) = H1975 (EGFR L858/T790M) (Homo sapiens, UniProt P00533, L858R/T790M); assay: EGFR target modulation in H1975 cell line (phospho-EGFR Y1173 ELISA); assay type: cell-based
H1975 (EGFR L858/T790M), sequence (P00533 25-1210 T790M/L858R): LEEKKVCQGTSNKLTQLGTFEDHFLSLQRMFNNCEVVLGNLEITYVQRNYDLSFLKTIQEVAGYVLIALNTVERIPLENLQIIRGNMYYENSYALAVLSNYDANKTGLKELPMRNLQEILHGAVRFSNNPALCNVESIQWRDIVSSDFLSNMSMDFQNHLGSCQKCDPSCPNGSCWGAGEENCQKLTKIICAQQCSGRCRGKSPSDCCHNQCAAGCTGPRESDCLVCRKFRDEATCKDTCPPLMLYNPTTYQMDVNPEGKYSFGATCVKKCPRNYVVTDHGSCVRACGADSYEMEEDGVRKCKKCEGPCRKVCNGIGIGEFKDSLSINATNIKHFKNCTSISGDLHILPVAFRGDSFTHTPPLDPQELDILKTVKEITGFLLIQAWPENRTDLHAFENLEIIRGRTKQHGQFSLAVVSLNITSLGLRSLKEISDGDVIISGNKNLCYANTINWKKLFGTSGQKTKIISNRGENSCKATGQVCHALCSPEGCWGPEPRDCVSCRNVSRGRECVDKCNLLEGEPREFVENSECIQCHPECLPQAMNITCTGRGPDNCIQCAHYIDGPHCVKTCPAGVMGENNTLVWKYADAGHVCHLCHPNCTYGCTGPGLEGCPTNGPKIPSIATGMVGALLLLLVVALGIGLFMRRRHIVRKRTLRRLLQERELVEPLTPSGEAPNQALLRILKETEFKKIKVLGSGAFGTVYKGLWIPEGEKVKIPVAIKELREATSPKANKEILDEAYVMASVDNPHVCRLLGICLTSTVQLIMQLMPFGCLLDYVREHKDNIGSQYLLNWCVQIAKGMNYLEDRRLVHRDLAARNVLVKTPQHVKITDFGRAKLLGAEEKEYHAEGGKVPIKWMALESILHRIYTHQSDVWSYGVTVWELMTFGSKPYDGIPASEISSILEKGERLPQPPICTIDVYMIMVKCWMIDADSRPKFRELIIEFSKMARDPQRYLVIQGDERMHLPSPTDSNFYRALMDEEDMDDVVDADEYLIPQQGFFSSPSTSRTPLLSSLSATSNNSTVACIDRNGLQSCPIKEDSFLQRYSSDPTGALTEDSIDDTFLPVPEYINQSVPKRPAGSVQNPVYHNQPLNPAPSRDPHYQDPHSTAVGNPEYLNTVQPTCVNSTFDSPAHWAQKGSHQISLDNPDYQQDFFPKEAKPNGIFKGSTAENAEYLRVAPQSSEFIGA
Experimental: as §2

EGFR(L858R/T790M) = target: T1, EGFR(L858R/T790M) (Homo sapiens, UniProt P00533, L858R/T790M); assay: EGFR biochemical assay (HTRF), IC50 determinations
T1 construct: purchased from Carna (GST-a.a. 669-1210)
Procedure, shortened: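 HTRF kinase reaction with biotin-TK peptide at room temperature, quenched with EDTA at 60 min and detected with PT66K/SAXL after 1 h. Without preincubation, enzyme starts the reaction with compound, ATP and peptide present. With preincubation, compound, enzyme and peptide sit at room temperature for a set time before ATP is added.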

[3] = target: human EGFR L858R/T790M (NIH/3T3 cells) (Homo sapiens, UniProt P00533, L858R/T790M); assay: EGFR target modulation in engineered NIH/3T3 cell lines (phospho-EGFR Y1068 AlphaLISA), EGFR L858R/T790M; assay type: cell-based; conditions: engineered NIH/3T3 cells, read-out: NIH3T3 IC50 (μM) EGFR (L858R/T790M)
human EGFR L858R/T790M (NIH/3T3 cells), sequence (P00533 25-1210 T790M/L858R): as above
Procedure, shortened: as §1

[4] = EGFR (L858R/T790M) with 90 min pre-incubation, read-out: IC50 (μM) Column B
[5] = EGFR (L858R/T790M) with no pre-incubation, read-out: IC50 (μM) Column A

HEKn (EGFR WT), sequence (P00533 25-1210): as the sequence (P00533 25-1210) above

Row | Structure (SMILES) | IC50 (HEKn (EGFR WT)) | IC50 [1] | IC50 [2] | IC50 (H3255 (EGFR L858R)) | IC50 (H1975 (EGFR L858/T790M)) | IC50 (EGFR(L858R/T790M); [4]) | IC50 (EGFR(L858R/T790M); [5]) | IC50 [3]
1 | C=CC(=O)N1CCC[C@@H](n2c(NC(=O)c3ccccc3)nc3cccc(C)c32)C1 [Example 17-108] | > 10000 nM | 0.306 µM | > 10 µM | 44 nM | 14 nM | 0.005 µM | 0.048 µM | 0.021 µM
2 | Cc1noc(-c2cccc3nc(NC(=O)c4ccccc4)n(C4COCCN(C(=O)/C=C/CN(C)C)C4)c23)n1 (stereo not drawn) [Example 17-142] | > 10000 nM | 0.34 µM | 5.2 µM | 640 nM | 105 nM | 0.01 µM | 0.32 µM | 0.09 µM
3 | Cc1cccc2nc(NC(=O)c3cnc(Cl)c(Cl)c3)n([C@@H]3CCCCN(C(=O)/C=C/CN(C)C)C3)c12 [Example 17-78] | 1680 nM | 0.005 µM | 0.152 µM | 37 nM | 134 nM | < 0.001 µM | 0.006 µM | 0.006 µM
4 | C=CC(=O)N1CCC[C@@H](n2c(NC(=O)c3cccc(C(F)(F)F)c3)nc3cc(C(N)=O)ccc32)C1 [Example 19, (R)-1-(1-acryloylpiperidin-3-yl)-2-(3-(trifluoromethyl)benzamido)-1H-benzo[d]imidazole-5-carboxamide] | > 10000 nM | 0.226 µM | > 10 µM | 2020 nM | 168 nM | 0.01 µM | 0.218 µM | 0.026 µM
5 | Cc1nccc(C(=O)Nc2nc3cccc(C)c3n2C2CCCCN(C(=O)/C=C/CN(C)C)C2)n1 (stereo not drawn) [Example 17-54] | 4900 nM | 0.022 µM | 0.56 µM | 81 nM | 78 nM | 0.005 µM | 0.09 µM | 0.041 µM
6 | Cc1cc(C(=O)Nc2nc3cccc(Cl)c3n2[C@@H]2CCCCN(C(=O)/C=C/CN3CC(O)C3)C2)ccn1 [Example 3-13] | 900 nM | 0.014 µM | 0.41 µM | 12 nM | 19 nM | < 0.001 µM | 0.007 µM | 0.022 µM
7 | C=CC(=O)N1CCC[C@@H](n2c(NC(=O)c3cccc(C(F)(F)F)c3)nc3cc(CN4CCCCC4)ccc32)C1 [Example 17-118] | > 10000 nM | 0.156 µM | > 10 µM | > 10000 nM | 640 nM | 0.005 µM | 0.68 µM | 0.005 µM

These reach a lower IC50 (HEKn (EGFR WT)). Values come first.

Row | IC50 (HEKn (EGFR WT)) | IC50 [1] | IC50 [2] | IC50 (H3255 (EGFR L858R)) | IC50 (H1975 (EGFR L858/T790M)) | IC50 (EGFR(L858R/T790M); [4]) | IC50 (EGFR(L858R/T790M); [5]) | IC50 [3] | Structure (SMILES)
8 | 212 nM | 0.002 µM | 0.057 µM | 5 nM | 132 nM | 0.005 µM | 0.092 µM | 0.031 µM | Cc1cccc2nc(NC(=O)c3ccc(C(F)(F)F)nc3)n(C3CCCCN(C(=O)/C=C/CN(C)C)C3)c12 (stereo not drawn) [Example 17-46]
9 | 203 nM | 0.003 µM | 0.047 µM | 8 nM | < 1 nM | < 0.001 µM | 0.004 µM | 0.001 µM | C=CC(=O)N1CCCC[C@@H](n2c(NC(=O)c3ccccc3)nc3cc(CN4CCCC4)cc(C)c32)C1 [Example 17-111]
10 | 295 nM | 0.015 µM | 0.282 µM | 28 nM | 10 nM | < 0.001 µM | 0.007 µM | 0.017 µM | CN(C)C/C=C/C(=O)N1CCCC[C@@H](n2c(NC(=O)c3ccnnc3)nc3cccc(Cl)c32)C1 [Example 17-16]
11 | 176 nM | 0.005 µM | 0.062 µM | 7 nM | 2 nM | < 0.001 µM | 0.005 µM | 0.002 µM | COc1cncc(C(=O)Nc2nc3cccc(C)c3n2[C@@H]2CCCCN(C(=O)/C=C/CN(C)C)C2)c1 [Example 17-79]
12 | 249 nM | 0.004 µM | 0.05 µM | 15 nM | 2 nM | < 0.001 µM | 0.003 µM | 0.001 µM | Cc1cccc2nc(NC(=O)c3cncc(C(F)(F)F)c3)n([C@@H]3CCCCN(C(=O)/C=C/CN(C)C)C3)c12 [Example 17-67]
13 | 74 nM | 0.001 µM | 0.019 µM | 2 nM | 1 nM | < 0.001 µM | 0.002 µM | 0.001 µM | Cc1cc(C(=O)Nc2nc3cccc(C)c3n2[C@@H]2CCCCN(C(=O)/C=C/CN(C)C)C2)ccn1 [Example 7, (R,E)-N-(1-(1-(4-(dimethylamino)but-2-enoyl)azepan-3-yl)-7-methyl-1H-benzo[d]imidazol-2-yl)-2-methylisonicotinamide]
14 | 71 nM | 0.001 µM | 0.02 µM | 6 nM | 1 nM | < 0.001 µM | 0.002 µM | < 0.001 µM | Cc1cccc2nc(NC(=O)c3cncc(F)c3)n([C@@H]3CCCCN(C(=O)/C=C/CN(C)C)C3)c12 [Example 17-69]
15 | 154 nM | 0.002 µM | 0.026 µM | 9 nM | 3 nM | < 0.001 µM | 0.005 µM | 0.002 µM | Cc1cccc2nc(NC(=O)c3ccnc(F)c3)n(C3CCCCN(C(=O)/C=C/CN(C)C)C3)c12 (stereo not drawn) [Example 17-58]
16 | 285 nM | 0.005 µM | 0.14 µM | 5 nM | 4 nM | < 0.001 µM | 0.006 µM | 0.005 µM | Cc1cccc2nc(NC(=O)c3ccncc3)n(C3CCCCN(C(=O)/C=C/CN(C)C)C3)c12 (stereo not drawn) [Example 17-35]
17 | 185 nM | 0.001 µM | 0.035 µM | 7 nM | < 1 nM | < 0.001 µM | < 0.001 µM | < 0.001 µM | Cc1cccc2nc(NC(=O)c3cncc(-n4cccc4)c3)n([C@@H]3CCCCN(C(=O)/C=C/CN(C)C)C3)c12 [Example 17-70]
18 | 203 nM | 0.002 µM | 0.023 µM | 8 nM | 2 nM | < 0.001 µM | 0.003 µM | 0.001 µM | Cc1cncc(C(=O)Nc2nc3cccc(C)c3n2[C@@H]2CCCCN(C(=O)/C=C/CN(C)C)C2)c1 [Example 17-68]
